We go through 1 compound from patent publication US6262095A, “Use of tricyclic derivatives of 1,4-dihydro-1,4-dioxo-1H-naphthalene, novel compounds obtained and their application in theraphy” (Laboratoire Innothera, priority 1995, dated 2001).

In one series the test system is mice. Kind of series: Single oral administration toxicity in mice. The class given is in vivo, mouse. The settings on record: single oral administration, 1 g/kg. From the text:
Moreover, the compounds of the invention and their possible salts have a very low toxicity.

For the next series, the system named is jugular vein of rabbits. As to the kind of experiment: Contraction of rabbit jugular vein under depolarizing hyperpotassic conditions. The class given is cell-based. The conditions noted are these: Oryctolagus cuniculus, pH 7.4, read-out: ED50 (contraction). As to the method:
(§1) The contractile effects are measured in vitro under static conditions on vascular capacitance or resistance rings of saphenous, femoral, jugular, mesenteric, and caval veins . . . and on femoral, carotid, basilar, or mesenteric arteries, as well as the thoracic or abdominal aorta . . . in rats (Wistar, 200-250 g), rabbits (New Zealand, 2-2.5 kg), guinea pigs (Dunkin Hartley 250-300 g).
(§2) The rings are placed in a chamber for isolated organs (25 mL for capacitance vessels and 2.5 mL for resistance vessels according to Mulvany), and maintained under isometric conditions using two rigid threads inserted inside the vessel, avoiding causing damage to the endothelium. The vessels are bathed in a modified Krebs solution (in mM: NaCl=118; KCl=4.6; CaCl2 =2.5; MgSO4 =1.2; KH2 PO4 =1.17; NaHCO3 =25; glucose=11), continuously aerated using a gaseous mixture of 95% O2 and 5% Co2, at a pH=7.4, and regulated by thermostat at 37° C. The rings are adjusted to their optimal point as far as the tension-length relationship is concerned. […] The pharmacological studies are carried out after a few standardized preliminary contractile stimulations using a depolarizing solution (hyperpotassic type obtained by replacing NaCl with KCl in equimolar quantities), along with rinsings and periods of equilibration in a pure physiological solution. […]

A further series concerns jugular vein of the rat. Kind of series: Contraction of rat jugular vein under depolarizing hyperpotassic conditions. The class given is cell-based. The settings on record: pH 7.4, read-out: ED50 (contraction). As to the method:
as §1, §2

For series [1], the system named is carotid arteries of rabbits. As to the kind of experiment: Contraction of rabbit carotid arteries under depolarizing hyperpotassic conditions. The class given is cell-based. The conditions noted are these: Oryctolagus cuniculus, pH 7.4, read-out: ED50 (contraction). As for the experimental part:
as §1, §2

Series [2] deals with hyperpermeability induced by histamine in rats. Kind of series: Hyperpermeability induced by histamine in rats. The class given is in vivo, rat (Wistar). The settings on record: rat, oral 0.1 mg/kg, after 2 h, compared to the control group. As to the method: The vascular permeability is studied in vivo by measuring the extravasation of albumin, the quantity of which is determined using an albumin-binding dye (Evans blue).
The hyperpermeability is induced by the intradermal injection of a solution of histamine, bradykinin, or zymosan.
The technique is derived from that described by Beach & Steinetz, J. Pharmacol. Exp. Therap., 1961, Vol. 131: pp. 400-406.
The abdominal walls of the rats (Wistar, 200-230 g) are shorn 1 h before the start of the experiment. The product to be tested is injected by the intraperitoneal route or orally 1-4 h before the sacrifice. The rats are anesthetized with a halothane mixture. […]
At the site of the injection of the inflammatory agent, the skin is cut and placed into glass tubes with a ground[-glass] neck containing 3 mL of fuming hydrochloric acid. […] The optical densities are quantified by absorption spectrophotometry at a wavelength of 620 nm, against a blank [control] containing only dichloromethane. The averages of the optical densities of the different lots of treated or control animals are calculated, then a percentage of variation of the values corresponding to the treated [experimental] animals compared to those of the control animals is calculated.

Series [3] concerns saphenous vein in rabbits. As to the kind of experiment: Contractile effect on the rabbit saphenous vein precontracted by a depolarizing physiological solution (K+ 40 mM). The settings on record: Oryctolagus cuniculus, precontracted with 40 mM potassium. The series is classed as cell-based. As to the method:
as §1
The rings are placed in a chamber for isolated organs (25 mL for capacitance vessels and 2.5 mL for resistance vessels according to Mulvany), and maintained under isometric conditions using two rigid threads inserted inside the vessel, avoiding causing damage to the endothelium. The vessels are bathed in a modified Krebs solution (in mM: NaCl=118; KCl=4.6; CaCl2 =2.5; MgSO4 =1.2; KH2 PO4 =1.17; NaHCO3 =25; glucose=11), continuously aerated using a gaseous mixture of 95% O2 and 5% Co2, at a pH=7.4, and regulated by thermostat at 37° C. The rings are adjusted to their optimal point as far as the tension-length relationship is concerned. The tensions developed generate an electrical signal through the intermediary of a force sensor (Wheatstone bridge). […] The pharmacological studies are carried out after a few standardized preliminary contractile stimulations using a depolarizing solution (hyperpotassic type obtained by replacing NaCl with KCl in equimolar quantities), along with rinsings and periods of equilibration in a pure physiological solution. The presence of endothelium is verified by the relaxation induced by increasing the concentration of acetylcholine after the stabilization of a vascular precontraction.
The forces of contraction developed by the vascular rings in response to the different compounds are studied on quiescent or electrically stimulated vessels (5-8 Hz), by a "physiological" depolarizing hyperpotassic solution (KCl: 20, 40 mM), by noradrenaline (increasing concentrations), [and by] serotonin (increasing concentrations).
The contractions are expressed in mg force or as a percentage of the maximum contraction at the time of the depolarization with a "physiological" hyperpotassic solution.
The contractile effect of different compounds on the saphenous vein in rabbits, precontracted by a depolarizing "physiological" solution with a potassium concentration of 40 mM, is given as an illustration; the maximum effect produced by each compound is expressed as a percentage of the maximum contraction induced by depolarizing hyperpotassic solutions and as value of ED50): […]

Series [4] deals with perfused mesenteric venous network of rats. As to the kind of experiment: Contraction of the perfused mesenteric venous network of rats. The series is classed as cell-based. The settings on record: rat perfused mesenteric venous network, depolarizing hyperpotassic conditions; read-out: ED50 (contraction). As to the method:
(§3) The contractile effects are also measured in vitro under dynamic flow conditions, by the pressure developed by the vascular beds that are perfused at a constant flow rate. At the mesenteric level, the selective effect on veins is studied using the model of a double simultaneous and separate infusion of the arterial and venous networks model developed by T. Warner (British J. Pharmacol., 1990, Vol. 99, pp. 427-433). The separation of the two networks is achieved by cutting the vessels and the tissues along the intestinal border. The networks are perfused at 2 mL.min^-1 with a Krebs solution (37.5° C.), which is aerated using 95% O2 and 5% CO2. In vivo, the arterial and venous pressures are measured in the anesthetized animal, under basal conditions and after circulatory arrest caused by the swelling of a balloon catheter introduced at the level of the left atrium. During the cardiac arrest, the venous tone (average circulatory filling pressure at a constant blood volume) is calculated from the venous and arterial pressures measured at equilibrium and corrected as a function of the relative differences in compliance between these two networks (Samar & Coleman, Am. J. Physiol., 1978, Vol. 234: pp. H94-100; Yamamoto et al., Am. J. Physiol., 1980, Vol. 238: pp. H823-828).

In series [5] the test system is arterial pressure of the anesthetized rat. Kind of series: Arterial pressure of the anesthetized rat. The class given is in vivo. The conditions noted are these: i.v. bolus at least up to 28 mg/kg. As for the experimental part: as §3
Series [6] concerns basilar artery of rabbits. Kind of series: Contraction of rabbit basilar artery under depolarizing hyperpotassic conditions. The class given is cell-based. As for the experimental part:
as §1, §2

As a reminder, the Emax is the maximal effect, on the per cent scale that the assay sets. With `O=C1c2ccccc2C(=O)c2sc(-c3ccco3)nc21` [Example n, 4,9-Dihydro-4,9-dioxo-2-(2-furyl)-naphtho[2,3-d]thiazole], the observed signs entry in the series on mice is “red urine”. In the series with mice, the “toxic effect and mortality” value is “no observable toxic effect and no mortality”. Also, the EC50 in the series on jugular vein of rabbits is 16 nM; with jugular vein of the rat, 50 nM; in series [1], 120 nM; in [3] (read-out: ED50 (the source's name)), 110 nM; in series [4], 300 nM. Also, in series [2], the “decrease of hyperpermeability induced by histamine” value was 26%. Moreover, the maximal effect (Emax) in series [3] (% of maximum contraction induced by hyperpotassic solutions) worked out at 24 ± 3%. For the same compound, the arterial pressure result in [5] is “does not affect the arterial pressure”. In addition, the “contraction of basilar artery” value in series [6] is given as “contracts”.
